Experimental data published in patent publication US20100311700A1, “Transdermal preparation for external use containing nonsterioidal antiinflammatory/analgesic agent” (Hisamitsu Pharmaceutical Co., Inc., priority 2005, published 2010).

Columns and labels:
Format in all cases: in vivo
Balb/c mice [1] = test: Murine auricular lymph node test 2 (modified LLNA, lymph node weight after ketoprofen + UVA); conditions: test substance 2% with KP 2%; UVA 20 J/cm^2, three days; lymph node removed after 5 days; toward the KP group
Description: Detection of a skin symptom due to an immunological mechanism resulting from KP upon photo-irradiation was carried out by other modified method of the above LLNA. Namely, as a test animal, Balb/c mice (female, 8-12 weeks old) were used. A test substance of 2% concentration and KP of 2% concentration which were dissolved in acetone—olive oil (4:1, v/v) or acetone—olive oil—physiological saline (3:3:1, v/v) were applied on the back of the pinna, and followed by UVA irradiation at 20 J/cm^2. This treatment inducing sensitization was carried out for three days consecutively. After 5 days from the start of the sensitization, the murine auricular lymph node was removed, and pooled in PBS. Then, PBS attached to the removed lymph node was sufficiently wiped up, and weighed. […]

Balb/c mice [2] = test: Murine auricular photo-irradiation test (ear edema after 2% ketoprofen + UVA); conditions: UVA 40 J/cm^2, toward the KP group
Description: The following experiments were carried out by referring to the method of Gerberick et al. (Food Chem. Toxicol., 27, 813-819 (1989) and modifying a part of it. Namely, as a test animal, Balb/c mice (female, 9-11 weeks old) were used. Each test substance {4-tert-butyl-4′-methoxydibenzoylmethane (BM-DBM), 2-ethylhexyl dimethoxybenzylidenedioxoimidazolidinepropionate (DB-D1H), terephthalylidene-3,3′-dicamphor-10,10′-disulfonic acid (TCDCS) and n-hexyl 2-(4-dimethylamino-2-hydroxybenzoyl)benzoate (DHB-BH)} which were dissolved in ethanol and 2% ketoprofen (KP) were applied on the auricle, and followed by WA irradiation at 40 J/cm^2.
The ear thickness was measured 24 hours after the WA irradiation, and an increase from the ear thickness prior to the start of the test was calculated.

Balb/c mice [3] = test: Murine local lymph node test 1 (modified LLNA, 3H-TdR uptake after ketoprofen + UVA); conditions: UVA 20 J/cm^2, 3 days, toward the KP group
Description: Detection of a skin symptom due to an immunological mechanism resulting from KP upon photo-irradiation was carried out by a modified method of Murine Local Lymph Node Assay (LLNA) proposed by The Interagency Coordinating Committee on the Validation of Alternative Methods (ICCVAM). Namely, as a test animal, Balb/c mice (female, 8-12 weeks old) were used. The test substance {4-tert-butyl-4′-methoxydibenzoylmethane (BM-DBM)} and 2% ketoprofen (KP) which were dissolved in acetone—olive oil (4:1, v/v) were applied on the back of the pinna, and followed by UVA irradiation at 20 J/cm^2. This treatment inducing sensitization was carried out for 3 days consecutively. After 5 days from the start of sensitization, a ^3H-methylthymidine (3H-TdR)/PBS solution of 20μCi per mouse was injected in the tail vein, and after 5 hours, the auricular lymph node was removed. The removed lymph node was made into a single lymph cell suspension by a cell strainer, then washed two times with PBS, and let it stand in 5% trichloroacetic acid (TCA) solution at 4° C. overnight to precipitate DNA. The precipitate was suspended in 1 ml of 5% TCA solution and a radiation activity was measured by a liquid scintillation counter.

[4] = system: Hartley strain guinea pig; test: Photo-sensitization test using guinea pigs (modified Adjuvant and Strip method); conditions: 2% test substance with 2% KP in ethanol, UVA 10 J/cm^2, toward the KP group
Description: An effect exerted by the UV blocker to skin symptoms due to an immunological mechanism resulting from KP upon photo-irradiation was further examined by a modified method of the Adjuvant and Strip method of Sato et al. (Nishinihon Hifuka, 42, 831-837 (1980)) using guinea pigs. That is, the cervical back of a white female Hartley strain guinea pig (eight guinea pigs per group) was depilated, and the adjuvant was administered to four corners of 2×2 cm, and then, 2% ketoprofen (KP) solution, or 2% KP and 2% test substance {4-tert-butyl-4′-methoxydibenzoylmethane (BM-DBM)} solution, which were dissolved in ethanol, were applied on the above parts of 2×2 cm under an open condition, and after 1 hour, UVA (10 J/cm^2) was irradiated. This treatment of sensitization induction was carried out successively for 5 days. […] Skin reactions after 24 hours and 48 hours from the irradiation were evaluated according to the above standard of Sato et al. The suppression effect by BM-DBM to the skin symptoms due to the immunological mechanism resulting from KP upon photo-irradiation was evaluated by the erythema/edema suppression ratio (%) toward the KP group.

[5] = test substance conc. 0.5% in ethanol with 2% ketoprofen on the auricle, ear thickness 24 hours after irradiation

| Compound | Suppression ratio (%) in the weight increase of the auricular lymph node (Balb/c mice [1]) [%] | Ear edema suppression ratio (%) (Balb/c mice [2]; [5]) | further results |
| --- | --- | --- | --- |
| CCOC(=O)c1ccc(N)cc1 [Ethyl 4-aminobenzoate] | 43 | – | – |
| O=C(c1ccc(O)cc1O)c1ccc(O)cc1O [2,2′,4,4′-Tetrahydroxybenzophenone, reference compound] | −32 | – | – |
| CCCCC(CC)COC(=O)C=Cc1ccc(OC)cc1 (centres unmarked) [2-Ethylhexyl 4-methoxycinnamate] | 20 | – | – |
| CCCCCCOC(=O)c1ccccc1C(=O)c1ccc(N(C)C)cc1O [DHB-BH, n-hexyl 2-(4-dimethylamino-2-hydroxybenzoyl)benzoate] | – | 84 | – |
| CC1(C)C2CCC1(CS(=O)(=O)O)C(=O)/C2=C\c1ccc(/C=C2/C(=O)C3(CS(=O)(=O)O)CCC2C3(C)C)cc1 [TP-DCS, terephthalylidene-3,3′-dicamphor-10,10′-disulfonic acid] | 63 | 65 | – |
| O=C(Oc1ccccc1)c1ccccc1O [Phenyl salicylate, reference compound] | 0 | – | – |
| Nc1ccc(C(=O)O)cc1 [4-Aminobenzoic acid, reference compound] | −39 | – | – |
| COc1ccc(O)c(-n2nc3ccccc3n2)c1 [2-(2′-Hydroxy-5′-methoxyphenyl)-bezotriazole] | 4 | – | – |
| O=C(OCCO)c1ccccc1O [Ethylene glycol monosalicylate, reference compound] | −68 | – | – |
| COc1ccc(C(=O)c2ccccc2)c(O)c1 [Oxybenzone] | 56 | – | – |
| COc1ccc(C(=O)CC(=O)c2ccc(C(C)(C)C)cc2)cc1 [BM-DBM, 4-tert-butyl-4′-methoxydibenzoylmethane] | 88 | 98 | Ear edema suppression ratio (%) (Balb/c mice [2]; test substance conc. 0.1% with 2% ketoprofen, 24 hours after irradiation): 41%; Ear edema suppression ratio (%) (Balb/c mice [2]; test substance conc. 0.3% with 2% ketoprofen, 24 hours after irradiation): 81%; ^3H-TdR uptake suppression ratio(%) (Balb/c mice [3]; BM-DBM concentration 0.06% with 2% ketoprofen in acetone-olive oil (4:1), auricular lymph node): 30%; ^3H-TdR uptake suppression ratio(%) (Balb/c mice [3]; BM-DBM concentration 0.13% with 2% ketoprofen): 51%; ^3H-TdR uptake suppression ratio(%) (Balb/c mice [3]; BM-DBM concentration 0.25% with 2% ketoprofen): 24%; ^3H-TdR uptake suppression ratio(%) (Balb/c mice [3]; BM-DBM concentration 0.50% with 2% ketoprofen): 94%; ^3H-TdR uptake suppression ratio(%) (Balb/c mice [3]; BM-DBM concentration 1.00% with 2% ketoprofen): 99%; Erythema/Edema suppression ratio (%) After 24 hrs ([4]; skin reaction 24 hours after photo-induction irradiation): 69%; Erythema/Edema suppression ratio (%) After 48 hrs ([4]; skin reaction 48 hours after photo-induction irradiation): 74% |
| 2-ethylhexyl dimethoxybenzylidenedioxoimidazolidinepropionate [DB-DIH] | – | 34 | – |
